Test results reported in patent US11927585B2, “Solvent-based inks and coatings for food contact applications” (SUN CHEMICAL CORPORATION, priority 2020, dated 2024).

What was measured:
[1] = Worst-case calculation, Application 1 yoghurt pot lid exposure scenario; settings: 100% migration, 2.0 g/m^2 dry film
[2] = Worst-case calculation (100% migration), standard EU Cube exposure model; settings: for Worst-case calculation as a percentage of SML (or restriction), EU Cube / Worst Case Calculation of migration in EU Cube model (as a percentage of SML): 100% migration; for Worst-case calculation as a percentage of SML (or restriction), EU Cube: 2.0 g/m^2 dry film; for Worst Case Calculation of migration in EU Cube model (as a percentage of SML): dry coat weight 2.0 g/m^2
[3] = Worst-case calculation, Application 2 cheese packaging wrap exposure scenario; settings: 100% migration, 2.0 g/m^2 dry film
[4] = Specific migration limit (SML) from regulation or hazard assessment (TTC, VEGA QSAR, Cramer Class); settings: for SML or Restriction (mg substance/kg food): source HA (internal hazard assessment), self-derived SML, EU Cube model; for SML (or restriction): Source of SML or restriction: HA (internal hazard assessment)
[5] = substance in ink SBDEV980 (Ex. 4B Red)

## NC(=O)c1ccc(-c2ccccc2)cc1 [0003815-20-1, 4-Phenylbenzamide]
[1]; product SBDEV980
  Worst-case calculation as a percentage of SML (or restriction), Application 1: 90.5 percentage of SML (or restriction)
[1]; product SBDEV1285
  Worst-case calculation as a percentage of SML (or restriction), Application 1: 90.5 percentage of SML (or restriction)
[2]; product SBDEV980
  Worst-case calculation as a percentage of SML (or restriction), EU Cube: 230 percentage of SML (or restriction)
[2]; product SBDEV1285
  Worst-case calculation as a percentage of SML (or restriction), EU Cube: 230 percentage of SML (or restriction)
[2]; [5]
  Worst Case Calculation of migration in EU Cube model (as a percentage of SML): 230 percentage of SML
[3]; product SBDEV980
  Worst-case calculation as a percentage of SML (or restriction), Application 2: 331.2 percentage of SML (or restriction)
[3]; product SBDEV1285
  Worst-case calculation as a percentage of SML (or restriction), Application 2: 331.2 percentage of SML (or restriction)
[4]
  SML or Restriction (mg substance/kg food): 0.09 mg substance/kg food

## NC(=O)c1ccc(-c2ccccc2)cc1 [4-Phenylbenzamide]
[4]
  SML (or restriction): 0.09 mg substance/kg food

## O=Cc1ccc(-c2ccccc2)cc1 [4-Phenylbenzaldehyde]
[4]
  SML (or restriction): 0.09 mg substance/kg food

## c1ccc(-c2ccc(-c3nc(-c4ccc(-c5ccccc5)cc4)nc(-c4ccc(-c5ccccc5)cc4)n3)cc2)cc1 [0031274-51-8, 1,3,5-Triazine, 2,4,6-Tris([1,1′-Biphenyl]-4-Yl)-]
[1]; product SBDEV980
  Worst-case calculation as a percentage of SML (or restriction), Application 1: 0.1 percentage of SML (or restriction)
[1]; product SBDEV1285
  Worst-case calculation as a percentage of SML (or restriction), Application 1: 0.1 percentage of SML (or restriction)
[2]; product SBDEV980
  Worst-case calculation as a percentage of SML (or restriction), EU Cube: 0.3 percentage of SML (or restriction)
[2]; product SBDEV1285
  Worst-case calculation as a percentage of SML (or restriction), EU Cube: 0.3 percentage of SML (or restriction)
[2]; [5]
  Worst Case Calculation of migration in EU Cube model (as a percentage of SML): 0.3 percentage of SML
[3]; product SBDEV980
  Worst-case calculation as a percentage of SML (or restriction), Application 2: 0.4 percentage of SML (or restriction)
[3]; product SBDEV1285
  Worst-case calculation as a percentage of SML (or restriction), Application 2: 0.4 percentage of SML (or restriction)
[4]
  SML or Restriction (mg substance/kg food): 5 mg substance/kg food

## OCCNCCO [0000111-42-2, Diethanolamine]
[2]; substance in ink SBDEV977 (Ex. 4A Yellow), volatile substance
  Worst Case Calculation of migration in EU Cube model: Basis for Safety outcome: Converter

## CCCCCCCC/C=C\CCCCCCCC(=O)N(CCO)CCO [0000093-83-4, N,N-Bis(2-hydroxyethyl) oleamide]
[1]; product SBDEV977
  Worst-case calculation as a percentage of SML (or restriction), Application 1: 27.1 percentage of SML (or restriction)
[1]; product SBDEV1287
  Worst-case calculation as a percentage of SML (or restriction), Application 1: 26.7 percentage of SML (or restriction)
[2]; product SBDEV977
  Worst-case calculation as a percentage of SML (or restriction), EU Cube: 69 percentage of SML (or restriction)
[2]; product SBDEV1287
  Worst-case calculation as a percentage of SML (or restriction), EU Cube: 68 percentage of SML (or restriction)
[2]; substance in ink SBDEV977 (Ex. 4A Yellow)
  Worst Case Calculation of migration in EU Cube model (as a percentage of SML): 69 percentage of SML
[3]; product SBDEV977
  Worst-case calculation as a percentage of SML (or restriction), Application 2: 99.4 percentage of SML (or restriction)
[3]; product SBDEV1287
  Worst-case calculation as a percentage of SML (or restriction), Application 2: 97.9 percentage of SML (or restriction)
[4]
  SML or Restriction (mg substance/kg food): 0.09 mg substance/kg food

## O=C(O)c1ccc(-c2ccccc2)cc1 [4-Phenylbenzoic Acid]
[4]
  SML (or restriction): 0.09 mg substance/kg food

## O=Cc1ccc(-c2ccccc2)cc1 [0003218-36-8, 4-Phenylbenzaldehyde]
[4]
  SML or Restriction (mg substance/kg food): 0.09 mg substance/kg food

## O=C1NC(=O)C(=C2NC(=O)c3ccccc32)C(=O)N1 [0013481-50-0, 2,4,6(1H,3H,5H)-Pyrimidinetrione, 5-(2,3-Dihydro-3-Oxo-1H-Isoindol-1-Ylidene)-]
[4]
  SML or Restriction (mg substance/kg food): 0.09 mg substance/kg food

## CCCOC(CC)OCCC [Propane, 1,1-dipropoxy-]
[4]
  SML (or restriction): 0.09 mg substance/kg food

## CCCCCCCC/C=C\CCCCCCCC(=O)OCC [Ethyl Oleate]
[4]
  SML (or restriction): 0.09 mg substance/kg food

## c1ccc(-c2ccc(-c3nc(-c4ccc(-c5ccccc5)cc4)nc(-c4ccc(-c5ccccc5)cc4)n3)cc2)cc1 [1,3,5-Triazine, 2,4,6-Tris([1,1′-Biphenyl]-4-Yl)-]
[4]
  SML (or restriction): 5 mg substance/kg food

## O=Cc1ccc(Cl)cc1 [4-Chlorobenzaldehyde]
[4]
  SML (or restriction): 0.09 mg substance/kg food

## CCCOC(CC)OCCC [0004744-11-0, Propane, 1,1-dipropoxy-]
[4]
  SML or Restriction (mg substance/kg food): 0.09 mg substance/kg food

## c1ccc2ccccc2c1 [0000091-20-3, Naphthalene]
[1]; product SBDEV976
  Worst-case calculation as a percentage of SML (or restriction), Application 1: 0.2 percentage of SML (or restriction)
[1]; product SBDEV1286
  Worst-case calculation as a percentage of SML (or restriction), Application 1: 0.2 percentage of SML (or restriction)
[2]; product SBDEV976
  Worst-case calculation as a percentage of SML (or restriction), EU Cube: 0.4 percentage of SML (or restriction)
[2]; product SBDEV1286
  Worst-case calculation as a percentage of SML (or restriction), EU Cube: 0.4 percentage of SML (or restriction)
[2]; substance in ink SBDEV976 (Ex. 4C Cyan)
  Worst Case Calculation of migration in EU Cube model (as a percentage of SML): 0.4 percentage of SML
[3]; product SBDEV976
  Worst-case calculation as a percentage of SML (or restriction), Application 2: 0.6 percentage of SML (or restriction)
[3]; product SBDEV1286
  Worst-case calculation as a percentage of SML (or restriction), Application 2: 0.6 percentage of SML (or restriction)

## O=C1NCCN1 [2-Imidazolidinone]
[4]
  SML (or restriction): 4.98 mg substance/kg food

## CCCC1OC(CCC)OC(CCC)O1 (stereo not drawn) [2,4,6-tripropyl-1,3,5-Trioxane]
[4]
  SML (or restriction): 0.09 mg substance/kg food

## N#Cc1ccc(-c2ccccc2)cc1 [4-Phenylbenzonitrile]
[4]
  SML (or restriction): 0.09 mg substance/kg food
